Laboratory results from patent publication US9758492B2, “IDO inhibitors” (Bristol-Myers Squibb Company, priority 2013, dated 2017).

These molecules were tested against IDO (Homo sapiens, UniProt P14902) (assay: LLE_IDO_ABS_DR (IDO assay)).
Chain of IDO (P14902 whole entry): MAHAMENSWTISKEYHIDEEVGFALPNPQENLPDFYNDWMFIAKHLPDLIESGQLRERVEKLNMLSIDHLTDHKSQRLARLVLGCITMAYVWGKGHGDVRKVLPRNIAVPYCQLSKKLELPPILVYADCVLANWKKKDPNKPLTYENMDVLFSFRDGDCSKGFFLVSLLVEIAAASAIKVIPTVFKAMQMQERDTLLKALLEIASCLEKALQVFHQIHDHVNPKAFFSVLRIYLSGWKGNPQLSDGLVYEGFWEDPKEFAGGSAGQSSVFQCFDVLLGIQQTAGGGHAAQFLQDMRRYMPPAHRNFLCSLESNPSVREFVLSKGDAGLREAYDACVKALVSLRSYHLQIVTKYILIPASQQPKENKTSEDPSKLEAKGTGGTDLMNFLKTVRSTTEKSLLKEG

For CCCN(Cc1ccccc1)c1ccc(-c2cc(F)ccc2C(=O)O)cc1NC(=O)Nc1ccc(C)cc1 [Example 186, 4′-(benzyl(propyl)amino)-5-fluoro-3′-(3-(p-tolyl)ureido)-[1,1′-biphenyl]-2-carboxylic acid], which IC50 is on record?
Its IC50 is 30 nM.

For Cc1ccc(NC(=O)Nc2cc(-c3ccccc3-c3nnn[nH]3)ccc2N(CC(C)C)C(C)C)cc1 [Example 147, 1-(4-(isobutyl(isopropyl)amino)-2′-(1H-tetrazol-5-yl)biphenyl-3-yl)-3-p-tolylurea], which IC50 is on record?
The IC50 was 10 nM.

Which IC50 does the source give for CN(c1ccc(-c2cc(F)ccc2C(=O)O)cc1NC(=O)Nc1ccccc1F)c1ccccc1C(C)(C)C [Example 479] here?
Its IC50 is 3800 nM.

CCN(c1ccc(-c2ccccc2-c2nnn[nH]2)cc1NC(=O)Nc1ccc(C)cc1)C1CCCC1 [Example 75, 1-(4-(cyclopentyl(ethyl)amino)-2′-(1H-tetrazol-5-yl)biphenyl-3-yl)-3-p-tolylurea] was tested. Which IC50 did it give?
Its IC50 is 3.24 nM.

Which IC50 does the source give for Cc1ccc(NC(=O)Nc2cc(-c3ccccc3-c3nnn[nH]3)ccc2Nc2ccccc2C(C)(C)C)cc1 [Example 208, 1-(4-((2-(tert-butyl)phenyl)amino)-2′-(1H-tetrazol-5-yl)-[1,1′-biphenyl]-3-yl)-3-(p-tolyl)urea] here?
Its IC50 is 50 nM.

How did the IC50 turn out when O=C(Nc1ccc(OC(F)(F)F)cc1)Nc1cc(-c2ccccc2-c2nnn[nH]2)ccc1N1CCCc2ccccc21 [Example 363, 1-(4-(3,4-Dihydroquinolin-1(2H)-yl)-2′-(1H-tetrazol-5-yl)-[1,1′-biphenyl]-3-yl)-3-(4-(trifluoromethoxy)phenyl)urea] was run?
Its IC50 is 900 nM.

How did the IC50 turn out when CC(C)CN(c1ccc(-c2ccccc2C(=O)O)cc1NC(=O)Nc1ccccc1C(F)(F)F)C1CCCCC1 [Example 162, 4′-(cyclohexyl (isobutyl)amino)-3′-(3-(2-(trifluoromethyl)phenyl)ureido)biphenyl-2-carboxylic acid] was run?
The IC50 was 1270 nM.

With Cc1ccc(NC(=O)Nc2cc(C3=C(c4nnn[nH]4)CCC3)ccc2N(CC(C)C)CC(C)C)cc1 [Example 164, 1-(5-(2-(1H-tetrazol-5-yl)cyclopent-1-enyl)-2-(diisobutylamino)phenyl)-3-p-tolylurea] as the molecule, how does the IC50 read?
Its IC50 is 5.4 nM.

Which IC50 does the source give for Cc1ccc(NC(=O)Nc2cc(-c3ccccc3-c3nnn[nH]3)ccc2N(Cc2ccccc2)CC(F)F)cc1 [Example 22, 1-(4-(Benzyl(2,2-difluoroethyl)amino)-2′-(1H-tetrazol-5-yl)-[1,1′-biphenyl]-3-yl)-3-(p-tolyl)urea] here?
Its IC50 is 30 nM.

Which IC50 does the source give for CNC(=O)c1ccccc1NC(=O)Nc1cc(-c2ccccc2-c2nnn[nH]2)ccc1N(CC(C)C)CC(C)C [Example 248, 2-(3-(4-(diisobutylamino)-2′-(1H-tetrazol-5-yl)-[1,1′-biphenyl]-3-yl)ureido)-N-methylbenzamide] here?
The IC50 was 5070 nM.

How did the IC50 turn out when O=C(Nc1ccc(OC(F)(F)F)cc1)Nc1cc(-c2ccccc2-c2nnn[nH]2)ccc1N(CCC(F)(F)F)Cc1ccc(Cl)cc1Cl [Example 337, 1-(4-((2,4-dichlorobenzyl)(3,3,3-trifluoropropyl)amino)-2′-(1H-tetrazol-5-yl)-[1,1′-biphenyl]-3-yl)-3-(4-(trifluoromethoxy)phenyl)urea] was run?
Its IC50 is 410 nM.

How did the IC50 turn out when O=C(Nc1cc(-c2ccccc2-c2nnn[nH]2)ccc1N(CCC(F)(F)F)Cc1ccc(Cl)cc1Cl)Nc1ccccc1C(F)(F)F [Example 335, 1-(4-((2,4-dichlorobenzyl)(3,3,3-trifluoropropyl)amino)-2′-(1H-tetrazol-5-yl)-[1,1′-biphenyl]-3-yl)-3-(2-(trifluoromethyl)phenyl)urea] was run?
Its IC50 is 1080 nM.

For Cc1ccc(NC(=O)Nc2cc(-c3ccccc3-c3nnn[nH]3)ccc2N(CCC(F)(F)F)CC2CC2)cc1 [Example 63, 1-(4-((cyclopropylmethyl) (3,3,3-trifluoropropyl)amino)-2′-(1H-tetrazol-5-yl)biphenyl-3-yl)-3-p-tolylurea], which IC50 is on record?
The IC50 was 120 nM.

How did the IC50 turn out when Cc1ccc(NC(=O)Nc2cc(-c3cc(F)ccc3C(=O)O)ccc2N(C)C2CCC(F)(F)CC2)cc1 [Example 105, 4′-((4,4-difluoro-cyclohexyl) (methyl)amino)-5-fluoro-3′-(3-p-tolylureido) biphenyl-2-carboxylic acid] was run?
The IC50 was 190 nM.

How did the IC50 turn out when CCN(CC(C)(C)C)c1ccc(-c2ccccc2C(=O)O)cc1NC(=O)Nc1ccc(C)cc1 [Example 111, 4′-(ethyl(neopentyl)amino)-3′-(3-p-tolylureido)biphenyl-2-carboxylic acid] was run?
The IC50 was 210 nM.

Cc1ccc(NC(=O)Nc2cc(-c3ccccc3-c3nnn[nH]3)ccc2N(CCC(F)(F)F)CC(C)C)cc1 [Example 199, 1-(4-(isobutyl(3,3,3-trifluoropropyl)amino)-2′-(1H-tetrazol-5-yl)-[1,1′-biphenyl]-3-yl)-3-(p-tolyl)urea] was tested. Which IC50 did it give?
Its IC50 is 60 nM.

How did the IC50 turn out when CCCN(c1ccc(-c2cc(F)ccc2C(=O)O)cc1NC(=O)Nc1ccccc1F)C1CCCC1 [Example 167, 4′-(cyclopentyl(propyl)amino)-5-fluoro-3′-(3-(2-fluorophenyl)ureido)biphenyl-2-carboxylic acid] was run?
The IC50 was 40 nM.

For Cc1ccc(NC(=O)Nc2cc(-c3ccccc3-c3nnn[nH]3)ccc2N(CC(C)C)CC2CCC2)cc1 [Example 98, 1-(4-((cyclobutylmethyl) (isobutyl)amino)-2′-(1H-tetrazol-5-yl)biphenyl-3-yl)-3-p-tolylurea], which IC50 is on record?
The IC50 was 30 nM.

Which IC50 does the source give for O=C(Nc1ccc(F)cc1F)Nc1cc(-c2ccccc2-c2nnn[nH]2)ccc1N(CCC(F)(F)F)Cc1ccc(F)cc1 [Example 324, 1-(2,4-difluorophenyl)-3-(4-((4-fluorobenzyl) (3,3,3-trifluoropropyl)amino)-2′-(1H-tetrazol-5-yl)-[1,1′-biphenyl]-3-yl) urea] here?
The IC50 was 160 nM.

For CCCN(c1ccc(-c2cc(F)ccc2C(=O)O)cc1NC(=O)Nc1ccc(C)cc1)C1CCCCC1 [Example 87, 4′-(cyclohexyl (propyl)amino)-5-fluoro-3′-(3-p-tolylureido) biphenyl-2-carboxylic acid], which IC50 is on record?
The IC50 was 3.68 nM.

With CC(C)CN(c1ccc(-c2cc(F)ccc2C(=O)O)cc1NC(=O)Nc1ccccc1F)C1CCCC1 [Example 176, 4′-(cyclopentyl(isobutyl)amino)-5-fluoro-3′-(3-(2-fluorophenyl)ureido) biphenyl-2-carboxylic acid] as the molecule, how does the IC50 read?
The IC50 was 7.86 nM.

Cc1ccc(NC(=O)Nc2cc(-c3ccc(F)cc3NS(=O)(=O)C(F)(F)F)ccc2N(CC(C)C)CC(C)C)cc1 [Example 81, N-(4′-(diisobutylamino)-4-fluoro-3′-(3-p-tolylureido)biphenyl-2-yl)-1,1,1-trifluoromethane-sulfonamide] was tested. Which IC50 did it give?
The IC50 was 270 nM.

How did the IC50 turn out when CC(C)CN(CCC1CC1)c1ccc(-c2ccccc2-c2nnn[nH]2)cc1NC(=O)Nc1ccccc1F [Example 133, 1-(4-((2-cyclopropylethyl) (isobutyl)amino)-2′-(1H-tetrazol-5-yl)biphenyl-3-yl)-3-(2-fluorophenyl)urea] was run?
The IC50 was 6.45 nM.

With CCN(CC(C)(C)C)c1ccc(-c2cc(F)ccc2C(=O)O)cc1NC(=O)Nc1ccccc1F [Example 115, 4′-(ethyl(neopentyl)amino)-5-fluoro-3′-(3-(2-fluorophenyl)ureido) biphenyl-2-carboxylic acid] as the molecule, how does the IC50 read?
The IC50 was 350 nM.

With Cc1ccc(NC(=O)Nc2cc(-c3ccccc3-c3nnn[nH]3)ccc2N(CC(F)F)C2CCCCC2)cc1 [Example 194, 1-(4-(cyclohexyl(2,2-difluoroethyl)amino)-2′-(1H-tetrazol-5-yl)-[1,1′-biphenyl]-3-yl)-3-(p-tolyl)urea] as the molecule, how does the IC50 read?
The IC50 was 4.74 nM.

How did the IC50 turn out when Cc1ccc(NC(=O)Nc2cc(-c3ccccc3-c3nnn[nH]3)ccc2N(Cc2ccc(Cl)cc2)C2CCCCC2)cc1 [Example 468] was run?
The IC50 was 80 nM.
